Test results from the NIST ThermoML archive (doi:10.1021/acs.jced.8b01004).

Columns and labels:
[1] = xn = mol fraction of the nth substance listed; settings: 100 kPa, Liquid; for viscosity: Falling or rolling sphere viscometry; for mass density: Vibrating tube method
[2] = 100 kPa, Liquid; for viscosity: Falling or rolling sphere viscometry; for mass density: Vibrating tube method

C1CC[C@H]2CCCC[C@H]2C1 [cis-decahydronaphthalene] + C1CC[C@H]2CCCC[C@@H]2C1
[1], x1 = 0.5
Settings	mass density [kg/m3]	viscosity [mPa·s]
293.15 K	880.41	2.488
298.15 K	876.64	2.255
303.15 K	872.86	2.054
308.15 K	869.1	1.88
313.15 K	865.33	1.727
318.15 K	861.56	1.592
323.15 K	857.8	1.473
328.15 K	854.02	1.367
333.15 K	850.25	1.272
338.15 K	846.47	1.188
343.15 K	842.68	1.111

OC1CCCC1 [cyclopentanol]
[2]
Settings	mass density [kg/m3]	viscosity [mPa·s]
293.15 K	946.99	11.88
298.15 K	943.05	9.722
303.15 K	939.05	8.068
308.15 K	935.01	7.077
313.15 K	930.91	6.04
318.15 K	926.75	5.19
323.15 K	922.53	4.441
328.15 K	918.24	3.83
333.15 K	913.89	3.312
338.15 K	909.48	2.886
343.15 K	904.99	2.53

CC1CCCCC1 [methylcyclohexane]
[2]
Settings	mass density [kg/m3]	viscosity [mPa·s]
293.15 K	769.35	0.735
298.15 K	765	0.689
303.15 K	760.65	0.647
308.15 K	756.3	0.611
313.15 K	751.93	0.577
318.15 K	747.56	0.547
323.15 K	743.16	0.519
328.15 K	738.74	0.495
333.15 K	734.29	0.473
338.15 K	729.82	0.453
343.15 K	725.32	0.434

CC1CCCCC1 [methylcyclohexane] + OC1CCCC1
[1], x1 = 1
Settings	mass density [kg/m3]	viscosity [mPa·s]
293.15 K	769.35	0.735
298.15 K	765	0.689
303.15 K	760.65	0.647
308.15 K	756.3	0.611
313.15 K	751.93	0.577
318.15 K	747.56	0.547
323.15 K	743.16	0.519
328.15 K	738.74	0.495
333.15 K	734.29	0.473
338.15 K	729.82	0.453
343.15 K	725.32	0.434
